From patent publication US10941114B2, “Small molecule lipid II inhibitors” (University Of Maryland, Baltimore, priority 2015, dated 2021)
Counter-ions that a name gives are not always drawn.

System: Staphylococcus aureus
Test: Antibacterial activity assay (MIC, broth dilution)
Assay type: cell-based
Design: S. aureus Killing / Bacterial Killing S. aureus: unit not given here
Settings: for S. aureus Killing: anti-bacterial activity (MIC), strain not stated

Row | SMILES | MIC (Staphylococcus aureus, Table 21, read-out: Staphylococcus aureus MIC) [µg/mL] | S. aureus Killing
1 | CN(C)c1ccc(/C=C/c2cc(-c3ccc(C(F)(F)F)cc3)cc(-c3ccc(C(F)(F)F)cc3)[o+]2)cc1.F[B-](F)(F)F | > 64 | 
2 | Cc1cc(C)[o+]c(C)c1 [2,4,6-trimethylpyrylium boron tetrafluoride salt] |  | >64
3 | Cc1cc(-c2ccc(C)c(C)c2)cc(-c2ccc(C)c(C)c2)[o+]1 [2,4-bis(3,4-dimethylphenyl)-6-methylpyrylium boron tetrafluoride salt] |  | >64
4 | CN(C)c1ccc(/C=C/C=C/c2cc(-c3ccc(C(C)(C)C)cc3)cc(-c3ccc(C(C)(C)C)cc3)[o+]2)cc1 [2,4-bis(4-(tert-butyl)phenyl)-6-((1E,3E)-4-(4-(dimethylamino)phenyl)buta-1,3-dien-1-yl)pyrylium boron tetrafluoride salt] |  | 64
5 | Cc1cc(-c2ccc(C(C)(C)C)cc2)cc(-c2ccc(C(C)(C)C)cc2)[o+]1 [2,4-bis(4-(tert-butyl)phenyl)-6-methylpyrylium boron tetrafiuoride salt] |  | >64
6 | CN(C)c1ccc(/C=C/C=C/c2cc(-c3ccc(Br)cc3)cc(-c3ccc(Br)cc3)[o+]2)cc1 [2,4-bis(4-bromophenyi)-6-((1E,3E)-4-(4-(dimetliylamino)phenyl)buta-1,3-dien-1-yl)pyrylium boron tetrafluoride salt] |  | >64
7 | CN(C)c1ccc(/C=C/C=C/c2cc(-c3ccc(Cl)cc3)cc(-c3ccc(Cl)cc3)[o+]2)cc1 [2,4-bis(4-chlorophenyl)-6-((1E,3E)-4-(4-(dimethylamino)phenyl)buta-1,3-dien-1-yl)pyrylium boron tetrafluoride salt] |  | >64
8 | Cc1cc(-c2ccc(Cl)cc2)cc(-c2ccc(Cl)cc2)[o+]1 [2,4-bis(4-chlorophenyl)-6-methylpyrylium boron tetrafluoride salt] |  | >64
9 | CCc1ccc(-c2cc(C)[o+]c(-c3ccc(CC)cc3)c2)cc1 [2,4-bis(4-ethylphenyl)-6-methylpyrylium boron tetrafluoride salt] |  | >64
10 | COc1ccc(-c2cc(C)[o+]c(-c3ccc(OC)cc3)c2)cc1 [2,4-bis(4-methoxyphenyl)-6-methylpyrylium boron tetrafluoride salt] |  | >64
11 | Cc1ccc(-c2cc(/C=C/C=C/c3ccc(N(C)C)cc3)[o+]c(-c3ccc(C)c(C)c3)c2)cc1C [2-((1E,3E)-4-(4-(dimethylamino)phenyl)buta-1,3-dien-1-yl)-4,6-bis(3,4~ dimethylphenyl) pyrylium boron tetrafluoride salt] |  | 32
12 | CCc1ccc(-c2cc(/C=C/C=C/c3ccc(N(C)C)cc3)[o+]c(-c3ccc(CC)cc3)c2)cc1 [2-((1E,3E)-4-(4-(dimethylamino)phenyl)buta-1,3-dien-1-yl)-4,6-bis(4-ethylphenyl) pyrylium boron tetrafluoride salt] |  | 8
13 | Cc1ccc(-c2cc(/C=C/C=C/c3ccc(N(C)C)cc3)[o+]c(-c3ccc(C)cc3)c2)cc1 [2-((1E,3E)-4-(4-(dimethylamino)phenyl)buta-1,3-dien-1-yl)-4,6-di-p-tolylpyrylium boron tetrafluoride salt] |  | 2
14 | CN(C)c1ccc(/C=C/C=C/c2cc(-c3ccccc3)cc(-c3ccccc3)[o+]2)cc1 [2-((1E,3E)-4-(4-(dimethylamino)phenyl)buta-1,3-dien-1-yl)-4,6-diphenyl pyrylium boron tetrafluoride salt] |  | 4
15 | Cc1cc(-c2ccccc2)cc(-c2ccccc2)[o+]1 [2-methy1-4,6-diphenylpyrylium boron tetrafluoride salt] |  | >64
16 | Cc1ccc(-c2cc(C)[o+]c(-c3ccc(C)cc3)c2)cc1 [2-methyl-4,6-di-p-tolylpyrylium boron tetrafluoride salt] |  | >64
17 | Cc1cc(/C=C/C=C/c2ccc(N(C)C)cc2)cc(C)[o+]1 [4-((1E,3E)-4-(4-(dimethylamino)phenyl)buta-1,3-dien-1-yl)-2,6-dimethylpyrylium boron tetrafluoride salt] |  | 32
18 | Cc1ccc(-c2cc(/C=C/c3cn(C)c4ccccc34)[o+]c(-c3ccc(C)c(C)c3)c2)cc1C [(E)-2,4-bis(3,4-dimethylphenyl)-6-(2-(1-methyl-1H-indol-3-yl)vinyl)pyrylium boron tetrafluoride salt] |  | 1
19 | CC(C)(C)c1ccc(-c2cc(/C=C/c3cc4c5c(c3)CCCN5CCC4)[o+]c(-c3ccc(C(C)(C)C)cc3)c2)cc1 [(E)-2,4-bis(4-(tert-butyl)phenyl)-6-(2-(1,2,3,5,6,7-hexahydropyrido [3,2,1-ij]quinolin-9-yl)vinyl)pyrylium boron tetrafluoride salt] |  | 32
20 | Cn1cc(/C=C/c2cc(-c3ccc(C(C)(C)C)cc3)cc(-c3ccc(C(C)(C)C)cc3)[o+]2)c2ccccc21 [(E)-2,4-bis(4-(tert-butyl)phenyl)-6-(2-(1-methyl-1H-indol-3-yl)vinyl)pyrylium boron tetrafluoride salt] |  | 16
21 | CN(C)c1ccc(/C=C/c2cc(-c3ccc(C(C)(C)C)cc3)cc(-c3ccc(C(C)(C)C)cc3)[o+]2)cc1 [(E)-2,4-bis(4-(tert-butyl)phenyl)-6-(4-(dimethylamino)styryl)pyrylium boron tetrafluoride salt] |  | 8
22 | Cn1cc(/C=C/c2cc(-c3ccc(Br)cc3)cc(-c3ccc(Br)cc3)[o+]2)c2ccccc21 [(E)-2,4-bis(4-bromophenyl)-6-(2-(1-methyl-1H-indol-3-yl)vinyl)pyrylium boron tetrafluoride salt] |  | 64
23 | Clc1ccc(-c2cc(/C=C/c3cc4c5c(c3)CCCN5CCC4)[o+]c(-c3ccc(Cl)cc3)c2)cc1 [(E)-2,4-bis(4-chlorophenyl)-6-(2-(1,2,3,5,6,7-hexahydropyrido [3,2,1-ij]quinolin-9-yl)vinyl)pyrylium boron tetrafluoride salt] |  | 1
24 | Cn1cc(/C=C/c2cc(-c3ccc(Cl)cc3)cc(-c3ccc(Cl)cc3)[o+]2)c2ccccc21 [(E)-2,4-bis(4-chlorophenyl)-6-(2-(1-methyl-1H-indol-3-yl)vinyl)pyrylium boron tetrafluoride salt] |  | 64
25 | Brc1ccc(-c2cc(/C=C/c3cc4c5c(c3)CCCN5CCC4)[o+]c(-c3ccc(Br)cc3)c2)cc1 [(E)-2,4-bis(4~ bromophenyl)-6-(2-(1,2,3,5,6,7-hexahydropyrido [3,2,1-ij]quinolin-9-yl)vinyl)pyrylium boron tetrafluoride salt] |  | 4
26 | Cc1ccc(-c2cc(/C=C/c3cc4c5c(c3)CCCN5CCC4)[o+]c(-c3ccc(C)cc3)c2)cc1 [(E)-2-(2-(1,2,3,5,6,7-hexahydropyrido [3,2,1-ij]quinolin-9-yl)vinyl)-4,6-di-p-tolylpyrylium boron tetrafluoride salt] |  | 1
27 | C(=C\c1cc(-c2ccccc2)cc(-c2ccccc2)[o+]1)/c1cc2c3c(c1)CCCN3CCC2 [(E)-2-(2-(1,2,3,5,6,7-hexahydropyrido [3,2,1-ij]quinolin-9-yl)vinyl)-4,6-diphenylpyrylium boron tetrafluoride salt] |  | 1
28 | Cc1ccc(-c2cc(/C=C/c3cn(C)c4ccccc34)[o+]c(-c3ccc(C)cc3)c2)cc1 [(E)-2-(2-(1-methyl-1H-indol-3-yl)vinyl)-4,6-di-p-tolylpyrylium boron tetrafluoride salt] |  | 0.5
